Values of other authors in patent publication US20120034276A1, “SOLID PREPARATION” (ASKA Pharmaceutical Co., Ltd., priority 2009, published 2012).
Residues, ends and D or L forms follow the SMILES beside them.

Settings: numeral in parenthesis, for reference; first or second dissociation step

Row | acid dissociation constant pKa | Structure (SMILES)
1 | 3.26 | NCC(=O)NC(Cc1c[nH]cn1)C(=O)NCC(=O)O (racemic) [glycyl-DL-histidylglycine]
2 | 2.26 | N[C@@H](Cc1ccccc1)C(=O)O [phenylalanine]
3 | 3.66 | CC(O)C(=O)O (centres unmarked) [lactic acid]
4 | 3.63 | O=C(O)CO [glycolic acid]
5 | 3.18 | O=CC(=O)O [glyoxylic acid]
6 | 2.21 | C[C@@H](O)[C@H](N)C(=O)O [threonine]
7 | 2.54 | NCC(=O)N[C@@H](Cc1c[nH]cn1)C(=O)O [glycyl-L-histidine] (H-Gly-His-OH)
8 | 2.72 | NCC(=O)NCC(=O)N[C@@H](Cc1c[nH]cn1)C(=O)O [glycylglycyl-L-histidine] (H-Gly-Gly-His-OH)
9 | 2.18 | N[C@@H](CCC(=O)O)C(=O)O [glutamic acid]
10 | 2.43 | NC(=O)NCCC[C@H](N)C(=O)O [citrulline]
11 | 2.30 | C[C@H](N)C(=O)O [alanine]
12 | 3.20 | C[C@H](N)C(=O)N[C@@H](C)C(=O)O [L-alanyl-L-alanine] (H-Ala-Ala-OH)
13 | 3.10 | C[C@H](N)C(=O)NCC(=O)O [L-alanylglycine] (H-Ala-Gly-OH)
14 | 2.82-2.99 | O=C(O)C(O)C(O)C(=O)O (centres unmarked) [tartaric acid]
15 | 3.18 | C[C@H](NC(=O)CNC(=O)CN)C(=O)O [glycylglycyl-L-alanine]
16 | 2.84 | N[C@@H](Cc1c[nH]cn1)C(=O)NCC(=O)O [L-histidylglycine] (H-His-Gly-OH)
17 | 2.26 | CC(=O)C(=O)O [pyruvic acid]

Row | acid dissociation constant pKa | Structure (SMILES)
18 | 3.07 | C[C@H](NC(=O)CN)C(=O)O [glycyl-L-alanine] (H-Gly-Ala-OH)
19 | 2.30 | CCCC[C@H](N)C(=O)O [norleucine]
20 | 2.15 | CSCC[C@H](N)C(=O)O [methionine]
21 | 4.00 | O=C(O)CCC(=O)O [succinic acid]
22 | 2.08 | CN(C)CC(=O)O [N,N-dimethylglycine]
23 | 2.90 | NCC(=O)NCC(=O)NCC(=O)N[C@@H](Cc1c[nH]cn1)C(=O)O [glycylglycylglycyl-L-histidine] (H-GGGH-OH)
24 | 3.18 | C[C@H](N)C(=O)NCC(=O)NCC(=O)NCC(=O)O [L-alanylglycylglycylglycine] (H-AGGG-OH)
25 | 2.35 | N[C@@H](Cc1c[nH]c2ccccc12)C(=O)O [tryptophan]
26 | 2.13 | N[C@@H](CO)C(=O)O [serine]
27 | 1.93 | N[C@@H](CC(=O)O)C(=O)O [aspartic acid]
29 | 2.09 | O=C(O)c1cccc(C(=O)O)n1 [2,6-pyridinedicarboxylic acid]
30 | 2.04 | NCCCC[C@H](N)C(=O)O [lysine]
31 | 2.05 | N=C(N)NCCC[C@H](N)C(=O)O [arginine]
32 | 3.24 | O=C(O)CC(O)C(=O)O (centres unmarked) [malic acid]
33 | 2.20 | CNCC(=O)O [N-methylglycine]

Row | Structure (SMILES) | acid dissociation constant pKa
34 | Nc1ccc(C(=O)O)cc1 [aminobenzoic acid] | 2.02-3.12
35 | CC(C)[C@H](N)C(=O)O [valine] | 2.26
36 | O=C(O)[C@H](O)[C@@H](O)[C@H](O)[C@H](O)CO [gluconic acid] | 3.86
37 | O=[PH](O)O [phosphonic acid] | 1.5
38 | O=C(O)CC(O)(CC(=O)O)C(=O)O [citric acid] | 2.87
